# Values quoted from earlier work as cited in patent US8883844B2, “Nitric oxide releasing amino acid ester for treatment of pulmonary hypertension and other respiratory conditions” (Nitrogenix Inc., priority 2010, dated 2014).
# Where two headings read alike, the source gives them in different places.
# Experiments:
# [1] = oral; 3, 6, 9 and 12 months
# [2] = open pilot study
smiles,measurement,setting,value
"CC#CCC(C)[C@H](O)/C=C/[C@@H]1[C@H]2c3cccc(CCCC(=O)O)c3O[C@H]2C[C@H]1O (mixture of isomers) [Beraprost, beraprost]",benefit in PAH,[1],benefit in a study in PAH at 3 and 6 months but not at 9 or 12 months
COc1ccccc1Oc1c(NS(=O)(=O)c2ccc(C(C)(C)C)cc2)nc(-c2ncccn2)nc1OCCO [bosentan],liver toxicity,higher dose,liver toxicity occurred
same,six minute walk test,"two placebo controlled trials, whole group, improvement greater at higher doses",improved
Cc1cc2c(cc1CC(=O)c1sccc1S(=O)(=O)Nc1onc(C)c1Cl)OCO2 [sitaxsentan],decrease in pulmonary vascular resistance,[2],30%
same,six minute walk test,[2],improvement
